Columns and labels:
[1] = Cytotoxicity against rat H9c2 cells assessed as cell viability measured after 25 hrs by CCK-8 assay; format: toxicity, cell-based
[2] = Hemolytic activity in human erythrocytes assessed as hemolysis at 0.51 to 32.8 mg/ml; format: toxicity, cell-based, Erythrocyte; details: dose 0.51-32.8 mg/ml, read-out: Activity
[3] = Toxicity in iv dosed Sprague-Dawley rat assessed as maximum tolerated dose measured upto 14 days; format: organism-based; details: in vivo, 336 h, time < 14 day
[4] = Toxicity in Sprague-Dawley rat assessed as histological changes in heart measured at 2000 mg/kg, iv upto 14 days by H and E assay; format: organism-based; details: in vivo, 336 h, time < 14 day
Rattus norvegicus [5] = assay: Recovery of Roc-induced neuromuscular block in Sprague-Dawley rat assessed as […] ratio (TOFr) by measuring recovery time at 12.5 mg/kg, iv (reference value: […]); format: functional
[6] = Therapeutic index, ratio of toxicity in iv dosed Sprague-Dawley rat assessed as maximum tolerated dose to recovery of Roc/Vec/Panc-induced neuromuscular block in Sprague-Dawley rat assessed as […] ratio (TOFr) by measuring recovery time at 25 mg/kg, iv; format: organism-based; details: in vivo, read-out: TI
Rattus norvegicus [7] = assay: Recovery of Roc-induced neuromuscular block in Sprague-Dawley rat assessed as […] ratio (TOFr) >= 90% by measuring recovery time at 25 mg/kg, iv (reference value: 597 seconds); format: functional
Vecuronium = assay: Binding affinity to Vecuronium by Competition UV-Vis titration method
[8] = Hemolytic activity in Sprague-Dawley rat erythrocytes assessed as hemolysis at 0.51 to 32.8 mg/ml; format: toxicity, cell-based, Erythrocyte; details: dose 0.51-32.8 mg/ml, read-out: Activity
Rattus norvegicus [9] = assay: Recovery of Pan-induced neuromuscular block in Sprague-Dawley rat assessed as […] ratio (TOFr) >= 90% by measuring recovery time at 25 mg/kg, iv (reference value: 3600 seconds); format: functional
Rattus norvegicus [10] = assay: Recovery of CisA-induced neuromuscular block in Sprague-Dawley rat assessed as […] ratio (TOFr) >= 90% by measuring recovery time at 150 mg/kg, iv (reference value: 784 seconds); format: functional
[11] = Toxicity in Sprague-Dawley rat assessed as histological changes in liver measured at 2000 mg/kg, iv upto 14 days by H and E assay; format: organism-based; details: in vivo, 336 h, time < 14 day
[12] = Water solubility of the compound measured at 25 degreeC; format: physicochemical
Rattus norvegicus [13] = assay: Recovery of CisA-induced neuromuscular block in Sprague-Dawley rat assessed as […] ratio (TOFr) >= 90% by measuring recovery time at 100 mg/kg, iv (reference value: 784 seconds); format: functional
Rocuronium = assay: Binding affinity to Rocuronium by Competition UV-Vis titration method
Rattus norvegicus [14] = assay: Recovery of Vec-induced neuromuscular block in Sprague-Dawley rat assessed as […] ratio (TOFr) >= 90% by measuring recovery time at 25 mg/kg, iv (reference value: 525 seconds); format: functional
[15] = system: Trans-cydohexane-1,4-diartunonium dichloride; assay: Binding affinity to Trans-[…] dichloride by Competition UV-Vis titration method
[16] = Cytotoxicity against rat H9c2 cells assessed as cell viability at 0.5 mg/ml measured after 25 hrs by CCK-8 assay; format: toxicity, cell-based; details: read-out: Activity
Proflavine = assay: Binding affinity to Proflavine by Competition UV-Vis titration method
Cisatracurium = assay: Binding affinity to Cisatracurium by Competition UV-Vis titration method
[17] = Toxicity in human plasma assessed as abnormality in aPTT by measuring clotting time at < 4.8 mg/kg; format: organism-based; details: in vivo
[18] = Therapeutic index, ratio of toxicity in iv dosed Sprague-Dawley rat assessed as maximum tolerated dose to recovery of CisA-induced neuromuscular block in Sprague-Dawley rat assessed as […] ratio (TOFr) by measuring recovery time at 80 to 100 mg/kg, iv; format: organism-based; details: in vivo, dose 80-100 mg/kg, read-out: TI
[19] = Toxicity in Sprague-Dawley rat assessed as histological changes in spleen measured at 2000 mg/kg, iv upto 14 days by H and E assay; format: organism-based; details: in vivo, 336 h, time < 14 day
Rattus norvegicus [20] = assay: Recovery of CisA-induced neuromuscular block in Sprague-Dawley rat assessed as […] ratio (TOFr) by measuring recovery time at 25 mg/kg, iv (reference value: 784 seconds); format: functional
Pancuronium = assay: Binding affinity to Pancuronium by Competition UV-Vis titration method
[21] = Toxicity in Sprague-Dawley rat assessed as histological changes in kidney measured at 2000 mg/kg, iv upto 14 days by H and E assay; format: organism-based; details: in vivo, 336 h, time < 14 day
[22] = system: Midazolium-based-macrocycle; assay: Binding affinity to Midazolium-based-macrocycle by Competition UV-Vis titration method
Rattus norvegicus [23] = assay: Recovery of IMC-1-induced neuromuscular block in Sprague-Dawley rat assessed as […] ratio (TOFr) >= 90% by measuring recovery time at 10 mg/kg, iv (reference value: 4021 seconds); format: functional
[24] = Toxicity in Sprague-Dawley rat assessed as histological changes in lungs measured at 2000 mg/kg, iv upto 14 days by H and E assay; format: organism-based; details: in vivo, 336 h, time < 14 day
Rhodamine 6G = assay: Binding affinity to Rhodamine 6G by Competition UV-Vis titration method
[25] = Toxicity in human whole blood assessed as clotting indices measured at 1 mg/ml; format: tissue-based
[26] = Toxicity in Sprague-Dawley rat assessed as body weight loss measured at 2000 mg/kg, iv upto 14 days; format: organism-based; details: in vivo, 336 h, time < 14 day

## C[C@]12N3Cc4c(c(OCCCS(=O)(=O)[O-])c5c(c4OCCCS(=O)(=O)[O-])CCC5)CN1C(=O)N1CN4C(=O)N5CN6C(=O)N7CN8C(=O)N9Cc%10c(c(OCCCS(=O)(=O)[O-])c%11c(c%10OCCCS(=O)(=O)[O-])CCC%11)CN%10C(=O)N(CN%11C(=O)N(CN%12C(=O)N(CN(C3=O)[C@]12C)[C@@H]4[C@H]%125)[C@@H]6[C@H]%117)[C@]8(C)[C@@]9%10C.[Na+].[Na+].[Na+].[Na+]
[1]
  IC50 at 25 h: > 1000 µg/mL
[2]
  hemolysis: < 5%
[3]
  MTD: 500 mg/kg
[4]
  Activity: Non-toxic
Rattus norvegicus [5]
  Time: 15 s
[6]
  selectivity ratio: 60
Rattus norvegicus [7]
  Time: 24 s
Vecuronium
  Ka: 21 10^7/M
[8]
  hemolysis: < 5%
Rattus norvegicus [9]
  Time: 20 s
Rattus norvegicus [10]
  Time: 24 s
[11]
  Activity: Non-toxic
[12]
  solubility: 1000 mg/mL
Rattus norvegicus [13]
  Time: 34 s
Rocuronium
  Ka: 20.1 10^7/M
Rattus norvegicus [14]
  Time: 15 s
[15]
  Ka: 0.043 10^7/M
[16]
  viability at 25 h, 0.5 mg/ml: 80%
Proflavine
  Ka: 29.6 10^7/M
Cisatracurium
  Ka: 0.088 10^7/M
[17]
  Activity: Non-toxic
[18]
  selectivity ratio: 18.8
[19]
  Activity: Non-toxic
Rattus norvegicus [20]
  Time: 27 s
Pancuronium
  Ka: 1.22 10^7/M
[21]
  Activity: Non-toxic
[22]
  Ka: 339 10^7/M
Rattus norvegicus [23]
  Time: 12 s
[24]
  Activity: Non-toxic
Rhodamine 6G
  Ka: 0.1 10^7/M
[25]
  Activity: Non-toxic
[26]
  Activity: Non-toxic

— ChEMBL document CHEMBL6120965, “Structure-Activity Relationship Studies Leading to the Discovery of Highly Water-Soluble and Biocompatible Acyclic Cucurbit[n]uril FY-3451 as a Universal Antagonist That Rapidly Reverses Neuromuscular Blocking Agents In Vivo” (J Med Chem, 2024)
